Measurements reported in the pKa sets of Baltruschat and Czodrowski (2020).

Details: basic group

Row | SMILES | pKa
1 | [NH3+][C@@H](Cc1c[nH]cn1)C(=O)N[C@@H](Cc1c[nH]c[nH+]1)C(=O)[O-] | 5.6
2 | COc1cc(S(C)(=O)=O)cc(C(=O)N[C@@H]2C[C@H]3CC[C@@H](C2)N3Cc2ccccc2)c1OC | 8.92
3 | CC(=O)CCN(C)C | 8.95
4 | [O-]c1nc([O-])c2[nH]nnc2n1 | 9.3
5 | C[C@@H]1CC[C@H]2CC[C@H](C)N21 | 11.5
6 | CCN(CC)c1ccccc1 | 6.6
7 | CC(C)n1c(N)nc2ccc(/C(=C\C(N)=O)c3cccc(F)c3F)cc21 | 6.7
8 | COc1ccc(C2CCC[NH+]2C)cn1 (configuration not stated) | 1.34
9 | Nc1ccc(S(=O)(=O)Nc2ccncn2)cc1 | 1.3
10 | Cc1cnnc2c(O)cccc12 | 3.18
11 | CCNCC(=O)c1ccc(O)cc1 | 7.77
12 | C=C(C)[C@@H]1CN[C@H](C(=O)[O-])[C@@H]1CC(=O)[O-] | 10.2
13 | Cn1cnc2cc(O)ccc21 | 6.1
14 | COC(=O)c1ccc2ncccc2c1 | 3.8
15 | c1cc(N2CCOCC2)c2c(N3CCOCC3)cccc2c1 | 7.49
16 | Cn1cc(N)cc1C(=O)[O-] | 7
17 | FC(F)(F)c1cccc2ncccc12 | 3.09
18 | CC[NH+](CC)CCNc1nc(C)cc(Nc2ccc(Cl)cc2)n1 | 6.69
19 | Cc1ccccc1NN=C(C#N)C#N | -0.84
20 | CN(C)CCC(c1ccccc1)c1ccccc1 | 9.4
21 | CC(=O)NN=C1CCN(C)CC1 | 7.45
22 | Nc1cncnc1 | 2.83

Row | SMILES | pKa
23 | CC[NH+](CC)CCCNc1ccnc2ccccc12 | 8.65
24 | CCCNCC(=O)O | 10
25 | O=C([O-])C(NCCNC(C(=O)[O-])c1ccccc1[O-])c1ccccc1[O-] (configuration not stated) | 11.7
26 | c1ccc(CN2CCCC2)cc1 | 9.51
27 | C1=C(c2ccco2)C2CCN1CC2 | 8.92
28 | N#Cc1cccnc1 | 1.48
29 | CCc1cccnn1 | 3.58
30 | NCCc1c[nH]c2ccccc12 | 10.2
31 | COc1cnnc2ccccc12 | 3.21
32 | C[n+]1cnccc1[O-] | 1.84
33 | Nc1ccc(I)cc1 | 3.79
34 | CNCCN(C)CC[NH2+]C | 9.84
35 | CC[NH+](CCO)c1ccc(N)cc1 | 3.04
36 | [S-]c1cnc2cncnc2n1 | 5.5
37 | CN(C)c1ccc(/C=C/c2cc(N)c3ccccc3n2)cc1 | 9.7
38 | C=CCN | 9.74
39 | c1ccc(C2=Nc3ccccc3CO2)cc1 | 3.48
40 | C[NH+](C)CCC/N=C(\c1ccccc1)c1ccc2ccccc2c1 | 5.1
41 | COc1nc2ccccc2nc1OC | -1.15
42 | O=C([O-])C1CCN1 (configuration not stated) | 9.54
43 | C(=C\CN1CCCCC1)/CN1CCCCC1 | 9.7
44 | CCN(CC)CCNc1cc(C)nc(Nc2ccc(Cl)cc2)n1 | 9.05

Row | SMILES | pKa
45 | COc1ccc(S(=O)(=O)NCCCN2CCOCC2)c(OC)c1OC | 6.76
46 | CC(CO)CN(C)C (configuration not stated) | 9.75
47 | O=C([O-])[C@@H]1Cc2[nH]cnc2CN1 | 8.58
48 | Nc1cncnc1N | 6.03
49 | CCC(N)CO (configuration not stated) | 9.53
50 | CC(C)(C)CN | 10.2
51 | Nc1ccc2nc3ccc(N)cc3cc2c1 | 6.18
52 | NNCCO | 7.12
53 | CNC(=N)N(C)C | 13.6
54 | Nc1ccc(S(=O)(=O)Nc2nncs2)cc1 | 2.15
55 | CN1C2CCC(CC2)N1C | 7.14
56 | Cc1ccc(CNCC[NH3+])cc1 | 6.51
57 | Nc1ccnc(-c2cc(N)ccn2)c1 | 8.8
58 | OCNc1ccc(Cl)cc1 | 2.22
59 | CCC(O)CN(CC(O)CC)C(C)(C)C (configuration not stated) | 9.6
60 | CCN(C(C)C)C(C)C | 11.4
61 | O=C(/C=C/c1c[nH]cn1)OCCCl | 4.8
62 | CCSC(=O)c1ccc(C)cc1 | -4.2
63 | CC(C)CNCC(=O)[O-] | 10.1
64 | CN(CCC#N)CCC#N | 4.24
65 | CCCCCCCCCCN(CCO)CC(C)O (configuration not stated) | 7.5
66 | CCNC(C)C(=O)[O-] (configuration not stated) | 10.2

Row | SMILES | pKa
67 | C=CCN(CC=C)CCOC(=O)C(=C)C | 7.02
68 | CCOC(=O)c1ccc(N)cc1 | 2.58
69 | CCC/C(N)=C/C(=O)c1ccccc1 | -1.12
70 | O=C(/C=N/O)NCCN1CCOCC1 | 6.19
71 | CC(CC(O)(c1ccccc1)c1ccccc1)N1CCCCC1 (configuration not stated) | 8.62
72 | CC(C)([NH3+])C(N)=S | -8.75
73 | Nc1ccc(Oc2ccc(N)cc2)cc1 | 5.18
74 | CCCNC(=O)[C@H](Cc1c[nH]cn1)NC(=O)c1cccc(CNCCN)n1 | 9.3
75 | Nc1c2ccccc2nc2cccc([N+](=O)[O-])c12 | 7.3
76 | c1nc2c(ccc3c4c(cnc32)CCCC4)c2c1CCCC2 | 6.23
77 | C(=N\c1ccccc1)/Nc1ccccc1 | 6.3
78 | CN1CC[C@]23c4c5ccc(O[C@@H]6O[C@H](C(=O)[O-])[C@@H](O)[C@H](O)[C@H]6O)c4O[C@H]2[C@@H](O)C=C[C@H]3[C@H]1C5 | 8.1
79 | Cc1cncc(C)c1 | 6.15
80 | CNCCC[NH2+]C | 8.68
81 | Nc1cccc(-c2cccc(N)n2)n1 | 6.7
82 | NCCCCc1ccccn1 | 10.3
83 | CC(C)Nc1ncnc2c1cnn2C | 4.22
84 | Cc1nc2ncncc2[nH]1 | 2.85
85 | N[C@@H]1C[C@H]2CCCC[C@@H]2C[C@@H]1[NH3+] | 6.36
86 | C=CCC(C)(CN(CC)CC)OC(=O)CCC (configuration not stated) | 8.5
87 | CCN1CCCC1 | 11
